Assay results taken from patent publication US20250009742A1 (priority 2021, published 2025).
Like-named read-outs stand apart in the source and are kept apart here.

Tested on: intracellular HBV DNA
Test: Real-time PCR for intracellular HBV DNA in HepAD38 cells
Format: cell-based
Settings: 65 hours treatment
Description: HepAD38 cells were cultured in DMEM medium (Welgene) supplemented with 200 unit/mL penicillin, 200 μg/mL streptomycin, and 10% FBS. During maintenance and passage, the cells were cultured together with 0.4 μg/mL tetracycline. Two days before the treatment with compounds for inducing HBV replication was started, the medium was replaced with a tetracycline-free complete growth medium. […]
HepAD38 cells were treated with a compound for 65 hours and then recovered, and intracellular HBV DNA was extracted therefrom according to the protocol in the DNeasy Blood & Tissue Kit (Qiagen). The primers and probes used to quantify HBV DNA were 5′-[…]-3′, 5′-[…]-3′, and 5′-/56-FAM/TGT CCT GGT/ZEN/TAT CGC TGG ATG TGT CT/3IABkFQ/-3′. The HBV DNA was amplified by real-time PCR assay using LightCycler 480 (Roche) (J. Virol., 2018, 92(16):e00339-18). All of the processes were confirmed in duplicate.

[1] = Hepatitis B virus, HePAD38, 65 h

In the case of “3-(6-fluoropyridin-3-yl)-1-(2-methoxypyrimidin-5-yl)-1-((5-(trifluoromethyl)-1H-pyrazol-3-yl)methyl)urea [Example 184]”, the IC50 (read-out: IC50) is reported as 250 nM.
`COc1ncc(N(Cc2cc(C(F)(F)F)[nH]n2)C(=O)NC23CC(C2)C3)cn1` [Example 1, 3-(bicyclo[1.1.1]pentan-1-yl)-1-(2-methoxypyrimidin-5-yl)-1-((5-(trifluoromethyl)-1H-pyrazol-3-yl)methyl)urea] was tested, and the IC50 [1] was greater than 1100 nM.
With `COc1ncc(N(Cc2cc(C(F)(F)F)[nH]n2)C(=O)Nc2cncnc2)cn1` [Example 2, 1-(2-methoxypyrimidin-5-yl)-3-(pyrimidin-5-yl)-1-((5-(trifluoromethyl)-1H-pyrazol-3-yl)methyl)urea] the IC50 [1] was greater than 1100 nM.
`COc1ncc(N(Cc2cc(C(F)(F)F)[nH]n2)C(=O)Nc2ccnc(Br)c2F)cn1` [Example 4, 3-(2-bromo-3-fluoropyridin-4-yl)-1-(2-methoxypyrimidin-5-yl)-1-((5-(trifluoromethyl)-1H-pyrazol-3-yl)methyl)urea] was tested, and the IC50 [1] was 21 nM.
Work on `COc1ncc(N(Cc2cc(C(F)(F)F)[nH]n2)C(=O)Nc2cccc(Cl)n2)cn1` [Example 5, 3-(6-chloropyridin-2-yl)-1-(2-methoxypyrimidin-5-yl)-1-((5-(trifluoromethyl)-1H-pyrazol-3-yl)methyl)urea] yielded an IC50 [1] of 380 nM.
In the case of `COc1ncc(N(Cc2cc(C(F)(F)F)[nH]n2)C(=O)Nc2ccc(Cl)c(C#N)n2)cn1` [Example 8, 3-(5-chloro-6-cyanopyridin-2-yl)-1-(2-methoxypyrimidin-5-yl)-1-((5-(trifluoromethyl)-1H-pyrazol-3-yl)methyl)urea], the IC50 [1] is reported as greater than 1100 nM.
With `COc1ncc(N(Cc2cc(C(F)(F)F)[nH]n2)C(=O)Nc2cc(F)c(F)c(Cl)c2)cn1` [Example 11, 3-(3-chloro-4,5-difluorophenyl)-1-(2-methoxypyrimidin-5-yl)-1-((5-(trifluoromethyl)-1H-pyrazol-3-yl)methyl)urea] the IC50 [1] was 10 nM.
`COc1ncc(N(Cc2cc(C(F)F)[nH]n2)C(=O)Nc2cc(F)c(F)c(Cl)c2)cn1` [Example 12, 3-(3-chloro-4,5-difluorophenyl)-1-((5-(difluoromethyl)-1H-pyrazol-3-yl)methyl)-1-(2-methoxypyrimidin-5-yl)urea] showed an IC50 [1] of 45 nM.
For `CC(=O)c1cc(N(Cc2n[nH]c3c2CCOC3)C(=O)Nc2ccc(F)c(Cl)c2)ccn1` [Example 22, 1-(2-acetylpyridin-4-yl)-3-(3-chloro-4-fluorophenyl)-1-((1,4,5,7-tetrahydropyrano[3,4-c]pyrazol-3-yl)methyl)urea], the IC50 [1] was greater than 1100 nM.
Compound `CC12CC(N(Cc3cc(C(F)(F)F)[nH]n3)C(=O)Nc3ccc(F)c(Cl)c3)(C1)C2` [Example 27, 3-(3-chloro-4-fluorophenyl)-1-(3-methylbicyclo[1.1.1]pentan-1-yl)-1-((5-(trifluoromethyl)-1H-pyrazol-3-yl)methyl)urea] has an IC50 [1] of 160 nM.
For `COc1ncc(N(Cc2cc(C(F)F)[nH]n2)C(=O)Nc2ccc(F)c(Cl)c2)cn1` [Example 84, 3-(3-chloro-4-fluorophenyl)-1-((5-(difluoromethyl)-1H-pyrazol-3-yl)methyl)-1-(2-methoxypyrimidin-5-yl)urea], the IC50 [1] was 17 nM.
For `CCOCCc1c(CN(C(=O)Nc2ccc(F)c(Cl)c2)c2ccc(OC)nc2)n[nH]c1C(F)(F)F` [Example 85, 3-(3-chloro-4-fluorophenyl)-1-((4-(2-ethoxyethyl)-5-(trifluoromethyl)-1H-pyrazol-3-yl)methyl)-1-(6-methoxypyridin-3-yl)urea], the IC50 [1] was 230 nM.
For `COc1ccc(N(Cc2n[nH]c(C(F)(F)F)c2CCO)C(=O)Nc2ccc(F)c(Cl)c2)cn1` [Example 86, 3-(3-chloro-4-fluorophenyl)-1-((4-(2-hydroxyethyl)-5-(trifluoromethyl)-1H-pyrazol-3-yl)methyl)-1-(6-methoxypyridin-3-yl)urea], the IC50 [1] was 16 nM.
Compound `COc1ccc(N(Cc2n[nH]c(C(F)(F)F)c2CC2OC(C)(C)C(C)(C)O2)C(=O)Nc2ccc(F)c(Cl)c2)cn1` [Example 87, 3-(3-chloro-4-fluorophenyl)-1-(6-methoxypyridin-3-yl)-1-((4-((4,4,5,5-tetramethyl-1,3-dioxolan-2-yl)methyl)-5-(trifluoromethyl)-1H-pyrazol-3-yl)methyl)urea] has an IC50 [1] of 34 nM.
In the case of `COc1ccc(N(Cc2n[nH]c(C(F)F)c2OC)C(=O)Nc2ccc(F)c(Cl)c2)cn1` [Example 100, 3-(3-chloro-4-fluorophenyl)-1-((5-(difluoromethyl)-4-methoxy-1H-pyrazol-3-yl)methyl)-1-(6-methoxypyridin-3-yl)urea], the IC50 [1] is reported as 36 nM.
For `COc1ncc(N(Cc2n[nH]c(C(F)(F)F)c2CC(C)(C)O)C(=O)Nc2ccc(F)c(Cl)c2)cn1` [Example 101, 3-(3-chloro-4-fluorophenyl)-1-((4-(2-hydroxy-2-methylpropyl)-5-(trifluoromethyl)-1H-pyrazol-3-yl)methyl)-1-(2-methoxypyrimidin-5-yl)urea], the IC50 [1] was greater than 1100 nM.
Compound `COc1ncc(N(Cc2n[nH]c(C(F)F)c2CC(C)(C)O)C(=O)Nc2ccc(F)c(Cl)c2)cn1` [Example 103, 3-(3-chloro-4-fluorophenyl)-1-((5-(difluoromethyl)-4-(2-hydroxy-2-methylpropyl)-1H-pyrazol-3-yl)methyl)-1-(2-methoxypyrimidin-5-yl)urea] has an IC50 [1] greater than 1100 nM.
Compound `COc1ncc(N(Cc2cc(C#N)[nH]n2)C(=O)Nc2ccc(F)c(Cl)c2)cn1` [Example 104, 3-(3-chloro-4-fluorophenyl)-1-((5-cyano-1H-pyrazol-3-yl)methyl)-1-(2-methoxypyrimidin-5-yl)urea] has an IC50 [1] of 27 nM.
Work on `COc1ncc(N(Cc2cc(C(F)(F)F)[nH]n2)C(=O)Nc2ccc(F)c(Cl)n2)cn1` [Example 106, 3-(6-chloro-5-fluoropyridin-2-yl)-1-(2-methoxypyrimidin-5-yl)-1-((5-(trifluoromethyl)-1H-pyrazol-3-yl)methyl)urea] yielded an IC50 [1] of 120 nM.
In the case of `COc1ncc(N(Cc2cc(C(F)(F)F)[nH]n2)C(=O)Nc2cnc(F)c(Cl)c2)cn1` [Example 107, 3-(5-chloro-6-fluoropyridin-3-yl)-1-(2-methoxypyrimidin-5-yl)-1-((5-(trifluoromethyl)-1H-pyrazol-3-yl)methyl)urea], the IC50 [1] is reported as 62 nM.
Compound `N#Cc1cc(N(Cc2n[nH]c3c2COCC3)C(=O)Nc2ccc(F)c(Cl)c2)ccn1` [Example 123, 3-(3-chloro-4-fluorophenyl)-1-(2-cyanopyridin-4-yl)-1-((1,4,6,7-tetrahydropyrano[4,3-c]pyrazol-3-yl)methyl)urea] has an IC50 [1] of 249 nM.
`N#Cc1ccc(N(Cc2n[nH]c3c2CCCO3)C(=O)Nc2ccc(F)c(Cl)c2)cn1` [Example 124, 3-(3-chloro-4-fluorophenyl)-1-(6-cyanopyridin-3-yl)-1-((1,4,5,6-tetrahydropyrano[2,3-c]pyrazol-3-yl)methyl)urea] was tested, and the IC50 [1] was 47 nM.
`N#Cc1ccc(N(Cc2cc(C(F)F)[nH]n2)C(=O)Nc2ccc(F)c(Cl)c2)cn1` [Example 126, 3-(3-chloro-4-fluorophenyl)-1-(6-cyanopyridin-3-yl)-1-((5-(difluoromethyl)-1H-pyrazol-3-yl)methyl)urea] was tested, and the IC50 [1] was 540 nM.
In the case of `O=C(Nc1ccc(F)c(Cl)c1)N(Cc1cc(C(F)(F)F)[nH]n1)C12CC(C1)C2` [Example 137, 1-(bicyclo[1.1.1]pentan-1-yl)-3-(3-chloro-4-fluorophenyl)-1-((5-(trifluoromethyl)-1H-pyrazol-3-yl)methyl)urea], the IC50 [1] is reported as 370 nM.
In the case of `COc1ncc(N(Cc2cc(C(F)F)[nH]n2)C(=O)Nc2cc(C)c(F)c(Cl)c2)cn1` [Example 139, 3-(3-chloro-4-fluoro-5-methylphenyl)-1-((5-(difluoromethyl)-1H-pyrazol-3-yl)methyl)-1-(2-methoxypyrimidin-5-yl)urea], the IC50 [1] is reported as 40 nM.
`COc1ncc(N(Cc2cc(C(F)(F)F)[nH]n2)C(=O)Nc2cc(C)c(F)c(Cl)c2)cn1` [Example 140, 3-(3-chloro-4-fluoro-5-methylphenyl)-1-(2-methoxypyrimidin-5-yl)-1-((5-(trifluoromethyl)-1H-pyrazol-3-yl)methyl)urea] gave an IC50 [1] of 37 nM.
`COc1ncc(N(Cc2cc(C(F)(F)F)[nH]n2)C(=O)Nc2nc(Cl)cc(C)c2F)cn1` [Example 141, 3-(6-chloro-3-fluoro-4-methylpyridin-2-yl)-1-(2-methoxypyrimidin-5-yl)-1-((5-(trifluoromethyl)-1H-pyrazol-3-yl)methyl)urea] was tested, and the IC50 [1] was 420 nM.
`COc1ncc(N(Cc2cc(C(F)(F)F)[nH]n2)C(=O)Nc2cnc(Cl)nc2)cn1` [Example 143, 3-(2-chloropyrimidin-5-yl)-1-(2-methoxypyrimidin-5-yl)-1-((5-(trifluoromethyl)-1H-pyrazol-3-yl)methyl)urea] was tested, and the IC50 [1] was greater than 1100 nM.
With `COc1ncc(N(Cc2cc(C(F)F)[nH]n2)C(=O)Nc2cccc(C#N)c2)cn1` [Example 147, 3-(3-cyanophenyl)-1-((5-(difluoromethyl)-1H-pyrazol-3-yl)methyl)-1-(2-methoxypyrimidin-5-yl)urea] the IC50 [1] was 80 nM.
`COc1ncc(N(Cc2cc(C(F)(F)F)[nH]n2)C(=O)Nc2cc(F)c(F)c(C#N)c2)cn1` [Example 149, 3-(3-cyano-4,5-difluorophenyl)-1-(2-methoxypyrimidin-5-yl)-1-((5-(trifluoromethyl)-1H-pyrazol-3-yl)methyl)urea] showed an IC50 [1] of 600 nM.
For `COc1ncc(N(Cc2cc(C(F)F)[nH]n2)C(=O)Nc2cc(F)c(F)c(C#N)c2)cn1` [Example 150, 3-(3-cyano-4,5-difluorophenyl)-1-((5-(difluoromethyl)-1H-pyrazol-3-yl)methyl)-1-(2-methoxypyrimidin-5-yl)urea], the IC50 [1] was greater than 1100 nM.
